# Measured values published in US8937078B2, “Quinazolinones as prolyl hydroxylase inhibitors” (Janssen Pharmaceutica NV, priority 2009, dated 2015).
# Columns and labels:
# human PHD2 (PHD2181-417) = target: T1, human PHD2 (PHD2181-417) (Homo sapiens, UniProt Q9GZT9); test: PHD enzymatic assay ([14C]-succinic acid production); type: biochemical; details: PHD2181-417, HIF-1α peptide 10 μM, average of results; read-out: Enzyme pIC50 (converted)
# T1 construct: Smt (SUMO) tag (cleaved yes); made in house; host or cells: E. coli BL21 (pBAD vector)
# T1 sequence (Q9GZT9 181-417): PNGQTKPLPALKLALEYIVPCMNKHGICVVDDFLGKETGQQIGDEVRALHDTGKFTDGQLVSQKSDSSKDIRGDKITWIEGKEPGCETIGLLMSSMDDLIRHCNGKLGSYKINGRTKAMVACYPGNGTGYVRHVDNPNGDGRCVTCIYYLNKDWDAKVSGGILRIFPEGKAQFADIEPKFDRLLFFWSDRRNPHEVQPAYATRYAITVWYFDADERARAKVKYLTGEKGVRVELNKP
# Procedure: Protein production was achieved by expression in BL21 cells grown in Terrific Broth containing 100 μg/ml ampicillin. Cell cultures were inoculated at 37° C. and grown to an OD600 of 0.8. Cultures were induced with 0.1% arabinose and grown overnight at 20° C. with continuous shaking at 225 rpm. Cells were then harvested by centrifugation and stored at −80° C. Cell pellets were suspended in Buffer A (50 mM Tris-HCl pH 7.2, 100 mM NaCl, 100 mM L-arginine, 1 mM TCEP, 0.05% (w/v) NP-40, 50 mM imidazole) followed by the addition of lysozyme and benzonase. Cells were lysed by sonication and the lysate was cleared by centrifugation (15,000 rpm, 90 min, 4° C.). The protein was purified by nickel affinity chromatography using a HisTrap Crude FF column (GE Healthcare). Samples were eluted in Buffer A with a 50-200 mM imidazole gradient. […] The flow-through was then dialyzed into 50 mM MES pH 6.0, 1 mM TCEP, 5 mM NaCl for ion exchange chromatography on a HiTrap SP Cation Exchange column (GE Healthcare). […] Fractions were pooled for further purification by size exclusion chromatography over a Superdex 75 Size Exclusion Column (GE Healthcare). Final protein was concentrated to 4 mg/ml and dialyzed in 10 mM PIPES pH 7.0, 100 mM NaCl, 0.5 mM TCEP.
# (10 μM, California Peptide Research Inc., Napa, Calif.), and [5-^14C]-2-oxoglutaric acid (50 mCi/mmol, Moravek Chemicals, Brea, Calif.) in reaction buffer (40 mM Tris-HCl, pH 7.5, 0.4 mg/ml catalase, 0.5 mM DTT, 1 mM ascorbate) for 10 minutes. The reaction was stopped by addition of 50 μl of 70 mM H3PO4 and 50 μl of 500 mM NaH2PO4, pH3.2. Detection of [^14C]-succinic acid was achieved by separating from [5-^14C]-2-oxoglutaric acid by incubating the reaction mixture with 100 μl of 0.16 M DNP prepared in 30% perchloric acid. Next, 50 μl of unlabeled 20 mM 2-oxoglutaric acid/20 mM succinic acid, serving as carrier for the radioactivity, was added to the mixture, and was allowed to proceed for 30 minutes at room temperature. The reaction was then incubated with 50 μl of 1 M 2-oxoglutaric acid for 30 additional minutes at room temperature to precipitate the excess DNP. The reaction was then centrifuged at 2800×g for 10 minutes at room temperature to separate [^14C]-succinic acid in the supernatant from the precipitated [^14C]-dinitrophenylhydrazone. Fractions of the supernatant (400 μl) were counted using a beta counter (Beckman Coulter, Fullerton, Calif.).
# Hep-3B cells = test: Cellular assay: erythropoietin secretion in Hep-3B cells; type: cell-based, human; details: Homo sapiens, Hep3B, 100 μM compound, 24 hours, percent of EPO secretion relative to assay control compound 7-[(4-Chloro-phenyl)-(5-methyl-isoxazol-3-ylamino)-methyl]-quinolin-8-ol, read-out: Cellular % EPO Stimulation
# Procedure: Hep-3B cells (ATCC, Manassas, Va.) were plated in 96-well plates at 20,000 cells per well in 100 μl of DMEM containing 10% fetal bovine serum, 1% non-essential amino acids, 50 IU/mL of penicillin and 50 μg/mL of streptomycin (all cell culture reagents from Invitrogen, Carlsbad, Calif.). Twenty-four hours after plating, compounds were added and incubated for an additional 24 hours. All compounds were tested under saturating conditions with final compound concentrations at 100 μM. Fifty microliters of the supernatant was then transferred to a human Hypoxia assay kit (Meso-Scale Discovery, Gaithersburg, Md.). Erythropoietin in the supernatant was detected according to the manufacturer's instructions as follows. EPO detection plates were blocked with 3% BSA in PBS overnight and 50 μl of the supernatant was incubated at room temperature in an orbital shaker for 2 h. Twenty-five microliters of 0.5 μg/ml anti-EPO detection antibody was added for 2 hours at room temperature in an orbital shaker. After 3 washes in PBS, 150 μl of 1× read buffer is added and the plate is then read on the MSD SECTOR instrument.
Structure (SMILES),IC50 (human PHD2 (PHD2181-417)) [nM],Emax at 100 µM (Hep-3B cells) [%]
"O=C(O)c1cnn(-c2nc3cc(F)c(Oc4cccc5ccccc45)cc3c(=O)[nH]2)c1 [Example 57, 1-[7-Fluoro-6-(naphthalen-1-yloxy)-4-oxo-3,4-dihydro-quinazolin-2-yl]-1H-pyrazole-4-carboxylic acid]",20,135
"O=C(O)c1cnn(-c2nc3c4c(ccc3c(=O)[nH]2)OCCO4)c1 [Example 138, 1-(8-Oxo-2,3,7,8-tetrahydro-1,4-dioxa-5,7-diaza-phenanthren-6-yl)-1H-pyrazole-4-carboxylic acid]",251,40
"O=C(O)c1cnn(-c2nc3ccc(Oc4cccc(Cl)c4Cl)cc3c(=O)[nH]2)c1 [Example 60, 1-[6-(2,3-dichloro-phenoxy)-4-oxo-3,4-dihydro-quinazolin-2-yl]-1H-pyrazole-4-carboxylic acid]",31.6,70
"O=C(O)c1cnn(-c2nc3cc(S(=O)(=O)c4ccccc4)ccc3c(=O)[nH]2)c1 [Example 81, 1-(7-Benzenesulfonyl-4-oxo-3,4-dihydro-quinazolin-2-yl)-1H-pyrazole-4-carboxylic acid]",79.4,26
"CN(C)c1ccc2c(=O)[nH]c(-n3cc(C(=O)O)cn3)nc2c1 [Example 150, 1-(7-Dimethylamino-4-oxo-3,4-dihydro-quinazolin-2-yl)-1H-pyrazole-4-carboxylic acid]",158,24
"O=C(O)c1cnn(-c2nc3c(Sc4ccccc4)cccc3c(=O)[nH]2)c1 [Example 113, 1-(4-Oxo-8-phenylsulfanyl-3,4-dihydro-quinazolin-2-yl)-1H-pyrazole-4-carboxylic acid]",200,17
"O=C(O)c1cnn(-c2nc3cc(F)c(Br)cc3c(=O)[nH]2)c1 [Example 127, 1-(6-Bromo-7-fluoro-4-oxo-3,4-dihydro-quinazolin-2-yl)-1H-pyrazole-4-carboxylic acid]",31.6,9
"O=C(O)c1cnn(-c2nc3ccc(SC(F)(F)F)cc3c(=O)[nH]2)c1 [Example 156, 1-(4-Oxo-6-trifluoromethylsulfanyl-3,4-dihydro-quinazolin-2-yl)-1H-pyrazole-4-carboxylic acid]",31.6,19
"Cc1cc2nc(-n3cc(C(=O)O)cn3)[nH]c(=O)c2cc1Oc1cc(Cl)ccc1Cl [Example 90, 1-[6-(2,5-dichloro-phenoxy)-7-methyl-4-oxo-3,4-dihydro-quinazolin-2-yl]-1H-pyrazole-4-carboxylic acid]",25.1,113
"Cc1ccccc1CNc1ccc2nc(-n3cc(C(=O)O)cn3)[nH]c(=O)c2c1 [Example 173, 1-[6-(2-Methyl-benzylamino)-4-oxo-3,4-dihydro-quinazolin-2-yl]-1H-pyrazole-4-carboxylic acid]",20,101
"O=C(O)c1cnn(-c2nc3cc(Cl)c(N4CCc5ccccc5C4)cc3c(=O)[nH]2)c1 [Example 84, 1-[7-Chloro-6-(3,4-dihydro-1H-isoquinolin-2-yl)-4-oxo-3,4-dihydro-quinazolin-2-yl]-1H-pyrazole-4-carboxylic acid]",20,101
"O=C(O)c1cnn(-c2nc3ccc(-c4cccc5c4OCCO5)cc3c(=O)[nH]2)c1 [Example 204, 1-[6-(2,3-Dihydro-benzo[1,4]dioxin-5-yl)-4-oxo-3,4-dihydro-quinazolin-2-yl]-1H-pyrazole-4-carboxylic acid]",15.8,111
"CC(C)(C)c1ccc(Sc2cc3c(=O)nc(-n4cc(C(=O)O)cn4)[nH]c3cc2Cl)cc1 [Example 24, 1-[6-(4-tert-Butyl-phenylsulfanyl)-7-chloro-4-oxo-1,4-dihydro-quinazolin-2-yl]-1H-pyrazole-4-carboxylic acid]",25.1,50
"O=C(O)c1cnn(-c2nc3ccc(NCc4c(Cl)cccc4Cl)cc3c(=O)[nH]2)c1 [Example 181, 1-[6-(2,6-Dichloro-benzylamino)-4-oxo-3,4-dihydro-quinazolin-2-yl]-1H-pyrazole-4-carboxylic acid]",25.1,118
"O=C(Nc1ccccc1)Nc1ccc2nc(-n3cc(C(=O)O)cn3)[nH]c(=O)c2c1 [Example 168, 1-[4-Oxo-6-(3-phenyl-ureido)-3,4-dihydro-quinazolin-2-yl]-1H-pyrazole-4-carboxylic acid]",31.6,4
"O=C(O)c1cnn(-c2nc3ccc(Oc4cccc(Cl)c4)cc3c(=O)[nH]2)c1 [Example 30, 1-[6-(3-Chloro-phenoxy)-4-oxo-3,4-dihydro-quinazolin-2-yl]-1H-pyrazole-4-carboxylic acid]",25.1,15
"CC(C)c1ccc2nc(-n3cc(C(=O)O)cn3)[nH]c(=O)c2c1 [Example 119, 1-(6-Isopropyl-4-oxo-3,4-dihydro-quinazolin-2-yl)-1H-pyrazole-4-carboxylic acid]",15.8,115
"O=C(O)c1cnn(-c2nc3cc(F)c(Oc4c(Cl)cccc4Cl)c(F)c3c(=O)[nH]2)c1 [Example 101, 1-[6-(2,6-dichloro-phenoxy)-5,7-difluoro-4-oxo-3,4-dihydro-quinazolin-2-yl]-1H-pyrazole-4-carboxylic acid]",25.1,24
"O=C(O)c1cnn(-c2nc3cc(F)c(Oc4c(Cl)cccc4Cl)cc3c(=O)[nH]2)c1 [Example 50, 1-[6-(2,6-Dichloro-phenoxy)-7-fluoro-4-oxo-3,4-dihydro-quinazolin-2-yl]-1H-pyrazole-4-carboxylic acid]",31.6,67
"CN1CCN(c2ccc3nc(-n4cc(C(=O)O)cn4)[nH]c(=O)c3c2)CC1 [Example 103, 1-[6-(4-methyl-piperazin-1-yl)-4-oxo-3,4-dihydro-quinazolin-2-yl]-1H-pyrazole-4-carboxylic acid]",63.1,30
"CC(C)Oc1ccc2c(=O)[nH]c(-n3cc(C(=O)O)cn3)nc2c1 [Example 149, 1-(7-Isopropoxy-4-oxo-3,4-dihydro-quinazolin-2-yl)-1H-pyrazole-4-carboxylic acid]",398,9
"COc1cc2nc(-n3cc(C(=O)O)cn3)[nH]c(=O)c2c(OC)c1OC [Example 18, 1-(5,6,7-Trimethoxy-4-oxo-3,4-dihydro-quinazolin-2-yl)-1H-pyrazole-4-carboxylic acid]",316,42
"CCOc1ccc2nc(-n3cc(C(=O)O)cn3)[nH]c(=O)c2c1 [Example 121, 1-(6-Ethoxy-4-oxo-3,4-dihydro-quinazolin-2-yl)-1H-pyrazole-4-carboxylic acid]",10,30
"Cc1cc2nc(-n3cc(C(=O)O)cn3)[nH]c(=O)c2cc1Oc1cccc(-c2ccccc2)c1 [Example 91, 1-[6-(biphenyl-3-yloxy)-7-methyl-4-oxo-3,4-dihydro-quinazolin-2-yl]-1H-pyrazole-4-carboxylic acid]",25.1,75
"Cc1cc2nc(-n3cc(C(=O)O)cn3)[nH]c(=O)c2cc1Oc1cccc(C(F)(F)F)c1 [Example 93, 1-[7-methyl-4-oxo-6-(3-trifluoromethyl-phenoxy)-3,4-dihydro-quinazolin-2-yl]-1H-pyrazole-4-carboxylic acid]",20,153
